Results reported in US6890951B2, “Treatment of addiction and addiction-related behavior” (Brookhaven Science Associates LLC, priority 1998, dated 2005).
“Also recorded” adds a separate entry of the source.

Assays:
male Sprague-Dawley rats = assay: Locomotor activity (Photobeam Activity System); format: in vivo; details: GVG 150 mg/kg or 300 mg/kg i.p., 2.5 hours before
Procedure: Animals were prehandled for 5 minutes each day for one week prior to the experiment to reduce handling stress. […] The animals were transported to the testing area one hour before each experiment. […] The locomotor cages themselves are 41.3×41.3×30.5 cm clear acrylic cages. The electronic system (Photobeam Activity system, San Diego Instruments, San Diego, Calif.) used to monitor locomotor activity consists of 16 infrared beams projecting across the cages from left to right and 16 beams from front to back. All the infrared beams are approximately 0.39 cm from the floor.
In this example the procedures outlined in Section 4 and 5 of Materials and Methods were followed.

[1] = system: extracellular DA in the NACC; assay: Microdialysis: ethanol-induced increases in NACC DA; format: in vivo, rats; details: Rattus norvegicus
Procedure: Ethanol at a dose of 1.0 g/kg i.p. was administered to the animals.

rats = assay: Nicotine-induced conditioned place preference; format: in vivo
Description: A total of 8 rats were examined for each treatment pairing. Animals received 4 pairings over an 8 day period, one pairing per day. […] The protocol on days 1 and 2 was repeated 3 additional times.
The CPP apparatus was made entirely of plexiglass, except for the floor in one of the pairing chambers, which was made of a stainless steel plate with holes (0.5 mm in diameter) spaced 0.5 mm from edge to edge. The two pairing chambers differed in visual and tactile cues. One chamber was entirely light blue with the stainless steel floor and the second chamber was light blue with horizontal black stripes (2.5 cm wide) spaced 3.8 cm apart with a smooth plexiglass floor.
The conditioning procedure consisted of 20 sessions carried out consecutively over 20 days. The first three sessions were habituation sessions, during which the animals were handled for 5 minutes per day and exposed to the sights and sounds of the test room. […] The amount of time spent in each chamber was recorded using an automated infrared beam electronically coupled to a timer.
The animals were habituated as described above. […] Subsequently, the animals were then placed into the appropriate chamber for 30 minutes. This was repeated for 8 pairings over a 16 day period. On the test day, animals were placed in the CPP apparatus and allowed free access to the all of the CPP chambers and the amount of time spent in chamber was recorded.

rhesus monkeys = details: cited from earlier work
NAc DA = assay: Microdialysis: cocaine/heroin (speedball) induced increases in NAc DA; format: in vivo, rats
Procedure: In vivo microdialysis studies were performed using adult male Sprague-Dawley rats (Taconic Farms) as detailed previously (Morgan and Dewey, 1998). Cocaine, a dopamine reuptake inhibitor, (n=6-8) was administered (i.p.) at a dose of 20 mg/kg while heroin, an indirect dopamine releaser, (n=6-8) was administered (i.p.) at a dose of 0.5 mg/kg. In studies designed to investigate the synergistic effects of a cocaine/heroin combination (n=6-8), both drugs were administered at the identical dose used in the single drug studies. Alone cocaine produced a marked elevation in extracellular DA of approximately 380% above baseline values, 60 minutes following administration. DA returned to baseline within 120 minutes. In contrast, heroin increased NAc DA by only 70%, 60 minutes following administration, returning to baseline within 140 minutes. However, when combined, the two drugs produced an increase in NAc DA of approximately 1000%, 180 minutes following administration that had not returned to baseline values by 200 minutes after reaching peak values (FIG. 9).

[2] = system: extracellular DA in the NACC; assay: In vivo microdialysis: nicotine-induced increases in extracellular NACC DA; parameters: species or system rats
Description: All animals were used under an IACUC-approved protocol and with strict adherence to the NIH guidelines. Adult male Sprague-Dawley rats (200-300 g, Taconic Farms), housed in the animals care facility under 12:12 light/dark conditions, were placed into 6 groups (n=5-9), anesthetized and siliconized guide cannulae were stereotactically implanted into the right NACC (2.0 mm anterior and 1.0 mm lateral to bregms, and 7.0 mm ventral to the cortical surface) at least 4 days prior to study. […] Animals were placed in bowls, and probes were inserted and flushed with ACSF overnight. On the day of the study, a minimum of three samples were injected to determine baseline stability. Samples were collected for 20 min. and injected on-line (CMA/160, BAS). The average Dopamine concentration of these three stable samples was defined as control (100%), and all subsequent treatment values were transformed to a percentage of that control. […] The high performance liquid chromatography (HPLC) system consists of a BAS reverse-phase column (3.0 μC-18), a BAS LC-4C electrochemical transducer with a dual/glassy carbon electrode set at 650 mV, a computer that analyzes data on-line using a commercial software package (Chromograph Bioanalytical Systems), and a dual pen chart recorder. The mobile phase (flow rate 1.0 ml/min) consisted of 7.0% methanol, 50 mM sodium phosphate monobasic, 1.0 mM sodium octyl sulfate, and 0.1 mm EDNA, pH 4.0. […] Upon completion of the study, animals were decapitated and frozen sections were obtained for probe placement verification.
The open circles are control animals.
In all studies, animals were placed in the microdialysis bowls the night before the experiment and artificial cerebrospinal fluid (ACSF) was perfused through the microdialysis probes at a flow rate of 2.0 μl/min. At the end of each study, animals were sacrificed and their brains were removed and sectioned for probe placement verification.

[3] = in vivo; cited from earlier work
[4] = acquisition, GVG 37.5 mg/kg i.p. 2.5 hours before nicotine 0.4 mg/kg s.c., 8 pairings
[5] = acquisition, GVG 75 mg/kg i.p. 2.5 hours before nicotine 0.4 mg/kg s.c., 8 pairings
[6] = acquisition, GVG 75 mg/kg i.p. 2.5 hours prior to nicotine 0.4 mg/kg s.c. (Table XII)
[7] = expression, Saline/Nicotine pairings, GVG 37.5 mg/kg on test day
[8] = expression, Saline/Nicotine pairings, GVG 75 mg/kg on test day
[9] = expression, Saline/Nicotine pairings, GVG 150 mg/kg on test day

C=CC(N)CCC(=O)O (racemic) [GVG, 4-amino-5-hexanoic acid]
locomotor activity compared to saline pretreated controls (male Sprague-Dawley rats): did not alter locomotor activity | inhibition at 300 mg/kg [1]: ~50% | inhibition at 100 mg/kg ([1]; read-out: inhibition of alcohol's ability to increase nucleus accumbens dopamine): ~40% | acquisition of nicotine-induced CPP (rats; GVG 37.5 mg/kg): did not significantly block and not | acquisition phase of nicotine-induced CPP (rats; GVG 75 mg/kg): significantly blocked; also recorded: abolish | Time spent in chambers, Paired (rats; [4]): 8.8 ± 0.5 min | Time spent in chambers, Unpaired (rats; [4]): 6.2 ± 0.5 min | Time spent in chambers, Paired (rats; [5]): 6.9 ± 0.9 min | Time spent in chambers, Unpaired (rats; [5]): 8.1 ± 0.9 min | Time spent in chambers, Paired (rats; [6]): 6.4 ± 0.3^4 min | Time spent in chambers, Unpaired (rats; [6]): 8.6 ± 0.3^5 min | Time spent in chambers, Paired (rats; [7]): 6.8 ± 1.0 min | Time spent in chambers, Unpaired (rats; [7]): 8.2 ± 1.0 min | Time spent in chambers, Paired (rats; [8]): 6.4 ± 0.3 min | Time spent in chambers, Unpaired (rats; [8]): 8.6 ± 0.3 min | Time spent in chambers, Paired (rats; [9]): 5.0 ± 0.9 min | Time spent in chambers, Unpaired (rats; [9]): 10.0 ± 0.9 min | withdrawal signs or symptoms (rhesus monkeys; animals withdrawn from chronic GVG treatment): do not exhibit withdrawal signs or symptoms | self-administration of GVG (rhesus monkeys; rhesus monkeys): not self-administered | temporal aspects of the response to cocaine/heroin (NAc DA; GVG 300 mg/kg i.p.): did not effect the temporal aspects of the response | increase in NAc DA after cocaine/heroin challenge (NAc DA; GVG 300 mg/kg i.p. 2.5 hours prior to challenge, 180 minutes following challenge): approximately 500% | synergistic effects of the combined drug challenge (absolute magnitude) (NAc DA; GVG 300 mg/kg i.p. 2.5 hours prior to cocaine/heroin): completely abolished the synergistic effects | basal DA levels prior to nicotine administration ([2]; GVG 75 mg/kg): no effect on basal DA levels | effect on nicotine-induced increases in DA ([2]; GVG 75 mg/kg i.p. 2.5 hours before nicotine 0.4 mg/kg): no effect | effect on nicotine-induced increases in DA ([2]; GVG 100 mg/kg i.p. 2.5 hours before nicotine 0.4 mg/kg): completely abolished; also recorded: completely blocked | effect on nicotine-induced increases in DA ([2]; GVG 100 mg/kg i.p. 2.5 hours before nicotine 0.4 mg/kg, listed as vigabatrin): completely blocked | effect on nicotine-induced increases in DA ([2]; GVG 150 mg/kg i.p. 2.5 hours before nicotine): blocks; also recorded: completely abolished | basal DA levels prior to nicotine administration ([2]; GVG 90, 100 or 150 mg/kg): lowered basal DA levels | inhibition at 90 mg/kg ([2]; Rattus norvegicus, ip, GVG 90 mg/kg i.p. 2.5 hours before nicotine 0.4 mg/kg): ~50% | effect on nicotine-induced increases in extracellular DA ([2]; chronically nicotine treated, GVG 100 mg/kg 2.5 hours prior to nicotine): completely abolished | nicotine-induced increase of extracellular DA above baseline ([2]; chronically nicotine treated, GVG 100 mg/kg 12 hours prior to challenge): approximately 25% | excretion [3]: excreted primarily unchanged in the urine; also recorded: excreted primarily in the unchanged form by the kidneys | interaction with the hepatic microsomal enzymes [3]: does not interact with the hepatic microsomal enzymes
